The ED50 is the midpoint of the dose-response relation.

Activity calls are given as the source filed them. The rule behind the calls is not given here.

The values below come from ChEMBL document CHEMBL3244328, “trans-2,3b,4,5,7,8b,9,10-Octahydronaphtho[1,2-c:5,6-c']dipyrazole, a new orally active antiallergic compound” (1978).

What all share (format): functional
The test system of assay [1] is Rattus norvegicus. In words: Antiallergic activity in Sprague-Dawley rat assessed as inhibition of mouse antiserum-induced passive cutaneous anaphylaxis at 100 mg/kg, po administered 1 hr before antiserum challenge measured after 3 hrs by Evans blue staining relative to control.
For assay [2], the system named is Rattus norvegicus. In words: Antiallergic activity in Sprague-Dawley rat assessed as inhibition of mouse antiserum-induced passive cutaneous anaphylaxis at 5 to 6 times ED50 mg/kg, po administered 1 hr before antiserum challenge measured after 30 mins by Evans blue staining relative to control.
In assay [3] the test system is Rattus norvegicus. Nature of the assay: Antiallergic activity in Sprague-Dawley rat assessed as inhibition of mouse antiserum-induced passive cutaneous anaphylaxis at 200 mg/kg, po administered 1 hr before antiserum challenge measured after 6 hrs by Evans blue staining relative to control. Conditions: read-out: INH.
For assay [4], the system named is Rattus norvegicus. In words: Antiallergic activity in Sprague-Dawley rat assessed as inhibition of mouse antiserum-induced passive cutaneous anaphylaxis at 50 mg/kg, po administered 1 hr before antiserum challenge measured after 30 mins by Evans blue staining relative to control. The conditions noted are these: read-out: INH.
Assay [5] deals with Rattus norvegicus. In words: Antiallergic activity in Sprague-Dawley rat assessed as inhibition of mouse antiserum-induced passive cutaneous anaphylaxis at 25 mg/kg, po administered 1 hr before antiserum challenge measured after 30 mins by Evans blue staining relative to control. Conditions: read-out: INH.
Assay [6] deals with Rattus norvegicus. In words: Antiallergic activity in po dosed Sprague-Dawley rat assessed as inhibition of mouse antiserum-induced passive cutaneous anaphylaxis administered 1 hr before antiserum challenge measured after 30 mins by Evans blue staining.

As to `Cn1cc2c(n1)[C@H]1CCc3cn(C)nc3[C@@H]1CC2`, the inhibition result in assay [1] was “inactive”.

In the case of `c1ccc(-n2ncc3c2[C@H]2CCc4cnn(-c5ccccc5)c4[C@@H]2CC3)cc1`, the inhibition result in assay [1] is “inactive”.

`c1[nH]nc2c1CC[C@H]1c3n[nH]cc3CC[C@H]21`: in assay [1] (read-out: INH), the inhibition in vivo at 100 mg/kg is 65%. Further, the “inhibition (INH)” value in assay [2] was found to be 60%. The inhibition in vivo at 200 mg/kg in assay [3] worked out at 63%. In addition, the inhibition in vivo at 50 mg/kg in assay [4] turned out to be 61%. The inhibition in vivo at 25 mg/kg in assay [5] is 33%. For the same compound, the ED50 in assay [6] worked out at 35 mg/kg.
